test system: HBV; assay: HBV inhibition assay in HepG2.2.15 cells (extracellular HBV DNA by qPCR); assay type: cell-based; details: Hepatitis B virus, 120 h, extracellular HBV DNA in culture supernatant by qPCR, five days after compound treatment
Excerpt: Example 19: HBV Inhibition Assays
Cell Line and Culture Conditions:
HepG2.2.15 is a stably-transfected cell line containing the HBV genome. It is derived from the hepatoblastoma cell line Hep G2 (American Type Culture Collection, ATCC® HB-8065™) by the published procedures described in reference: MA Selles et al. Proc. Natl. Acad. Sci. USA 1987, 84, 1005-1009. The cell line was maintained in Dulbecco's modified Eagle's medium and nutrient mixture F-12 (DMEM/F-12, Gibco, Cat. #: 11320-033) supplemented with 10% fetal bovine serum (Gibco, Cat. #: 10099-141), 100 U/mL penicillin, 100 μg/mL streptomycin (Gibco, Cat. #: 15140-122), and 0.3 mg/mL of G418 Sulfate (Gibco, Cat. #: 10131-027).
Anti-HBV Activity In Vitro:
HepG2.2.15 cells were seeded into 96-well plates at a density of 3×10^4 cells per well in culture media of 100 μL DMEM/F-12 supplemented with 2.5% fetal bovine serum, 100 U/mL penicillin, 100 μg/mL streptomycin and cultured overnight at 37° C. The test compounds were serially half-log diluted in DMSO, then diluted 100 times in culture media. 100 μL culture media containing diluted compounds were added into the plates to reach 0.5% final concentration of DMSO in every well. Five days after compound treatment, culture supernatant was collected for further analysis.
For quantitative PCR detection of extracellular HBV DNA, culture supernatant was processed by 500 μg/mL Proteinase K (Sigma, Cat. #: P2308) digestion at 50° C. for 1 hour. After heat inactivation of the enzyme at 95° C. for 15 minutes, the samples were subjected to HBV DNA quantification by qPCR. The effective compound concentration at which HBV replication was inhibited by 50% (EC50) was determined.

Compound	EC50
O=C(Nc1cc(F)c(F)c(F)c1)C1CCn2ncc(N3CCCC3=O)c2C1 (centres unmarked) [Example 1, 3-(2-oxopyrrolidin-1-yl)-N-(3,4,5-trifluorophenyl)-4,5,6,7-tetrahydropyrazolo[1,5-a]pyridine-5-carboxamide]	370 nM
CC1(C)CN(c2cnn3c2CC(C(=O)Nc2cc(F)c(F)c(F)c2)CC3)C(=O)O1 (centres unmarked) [Example 2, 3-(5,5-dimethyl-2-oxo-oxazolidin-3-yl)-N-(3,4,5-trifluorophenyl)-4,5,6,7-tetrahydropyrazolo[1,5-a]pyridine-5-carboxamide]	300 nM
O=C(Nc1cc(F)c(F)c(F)c1)C1CCn2ncc(-c3ccc(F)cc3F)c2C1 (centres unmarked) [Example 3, 3-(2,4-difluorophenyl)-N-(3,4,5-trifluorophenyl)-4,5,6,7-tetrahydropyrazolo[1,5-a]pyridine-5-carboxamide]	160 nM
O=C(Nc1cc(F)c(F)c(F)c1)C1CCn2ncc(C3CCCC3)c2C1 (centres unmarked) [Example 4, 3-cyclopentyl-N-(3,4,5-trifluorophenyl)-4,5,6,7-tetrahydropyrazolo[1,5-a]pyridine-5-carboxamide]	150 nM
O=C(Nc1cc(F)c(F)c(F)c1)C1CCn2ncc(N3CCCS3(=O)=O)c2C1 (centres unmarked) [Example 5, 3-(1,1-dioxo-1,2-thiazolidin-2-yl)-N-(3,4,5-trifluorophenyl)-4,5,6,7-tetrahydropyrazolo[1,5-a]pyridine-5-carboxamide]	39 nM
O=C(Nc1cc(F)c(F)c(F)c1)C1CCn2ncc(N3CCN(Cc4ccccc4)S3(=O)=O)c2C1 (centres unmarked) [Example 6, 3-(5-benzyl-1,1-dioxo-1,2,5-thiadiazolidin-2-yl)-N-(3,4,5-trifluorophenyl)-4,5,6,7-tetrahydropyrazolo[1,5-a]pyridine-5-carboxamide]	240 nM
O=C(Nc1cc(F)c(F)c(F)c1)C1CCn2ncc(N3CCNS3(=O)=O)c2C1 (centres unmarked) [Example 7, 3-(1,1-dioxo-1,2,5-thiadiazolidin-2-yl)-N-(3,4,5-trifluorophenyl)-4,5,6,7-tetrahydropyrazolo[1,5-a]pyridine-5-carboxamide]	110 nM
N#CC1CC(=O)N(c2cnn3c2CC(C(=O)Nc2cc(F)c(F)c(F)c2)CC3)C1 (centres unmarked) [Example 8, 3-(4-cyano-2-oxo-pyrrolidin-1-yl)-N-(3,4,5-trifluorophenyl)-4,5,6,7-tetrahydropyrazolo[1,5-a]pyridine-5-carboxamide]	190 nM
O=C(Nc1cc(F)c(F)c(F)c1)C1CCn2ncc(N3CCOCC3=O)c2C1 (centres unmarked) [Example 9, 3-(3-oxomorpholin-4-yl)-N-(3,4,5-trifluorophenyl)-4,5,6,7-tetrahydropyrazolo[1,5-a]pyridine-5-carboxamide]	840 nM
Cc1noc(C2CC(=O)N(c3cnn4c3CC(C(=O)Nc3cc(F)c(F)c(F)c3)CC4)C2)n1 (centres unmarked) [Example 10, 3-[4-(3-methyl-1,2,4-oxadiazol-5-yl)-2-oxo-pyrrolidin-1-yl]-N-(3,4,5-trifluorophenyl)-4,5,6,7-tetrahydropyrazolo[1,5-a]pyridine-5-carboxamide]	330 nM
O=C(Nc1ccsc1)C1CCn2ncc(-c3ccc(F)cc3F)c2C1 (centres unmarked) [Example 11, 3-(2,4-difluorophenyl)-N-(3-thienyl)-4,5,6,7-tetrahydropyrazolo[1,5-a]pyridine-5-carboxamide]	590 nM
O=C(Nc1ccc(F)c(C(F)(F)F)c1)C1CCn2ncc(-c3ccc(F)cc3F)c2C1 (centres unmarked) [Example 12, 3-(2,4-difluorophenyl)-N-[4-fluoro-3-(trifluoromethyl)phenyl]-4,5,6,7-tetrahydropyrazolo[1,5-a]pyridine-5-carboxamide]	870 nM
N#Cc1cc(NC(=O)C2CCn3ncc(-c4ccc(F)cc4F)c3C2)ccc1F (centres unmarked) [Example 13, N-(3-cyano-4-fluoro-phenyl)-3-(2,4-difluorophenyl)-4,5,6,7-tetrahydropyrazolo[1,5-a]pyridine-5-carboxamide]	210 nM
Cc1cc(NC(=O)C2CCn3ncc(-c4ccc(F)cc4F)c3C2)ccc1F (centres unmarked) [Example 14, 3-(2,4-difluorophenyl)-N-(4-fluoro-3-methyl-phenyl)-4,5,7-tetrahydropyrazolo[1,5-a]pyridine-5-carboxamide]	89 nM
O=C(Nc1cc(F)nc(F)c1)C1CCn2ncc(-c3ccc(F)cc3F)c2C1 (centres unmarked) [Example 15, 3-(2,4-difluorophenyl)-N-(2,6-difluoro-4-pyridyl)-4,5,6,7-tetrahydropyrazolo[1,5-a]pyridine-5-carboxamide]	450 nM
O=C(Nc1ccnc(F)c1)C1CCn2ncc(-c3ccc(F)cc3F)c2C1 (centres unmarked) [Example 16, 3-(2,4-difluorophenyl)-N-(2-fluoro-4-pyridyl)-4,5,6,7-tetrahydropyrazolo[1,5-a]pyridine-5-carboxamide]	350 nM
Cc1nc(C2CC(=O)N(c3cnn4c3CC(C(=O)Nc3cc(F)c(F)c(F)c3)CC4)C2)no1 (centres unmarked) [Example 18, 3-[4-(5-methyl-1,2,4-oxadiazol-3-yl)-2-oxo-pyrrolidin-1-yl]-N-(3,4,5-trifluorophenyl)-4,5,6,7-tetrahydropyrazolo[1,5-a]pyridine-5-carboxamide]	390 nM
